Columns and labels:
Format in all cases: biochemical
human cathepsin B = human cathepsin B (Homo sapiens, UniProt P07858); experiment: Cathepsin B inhibition assay, fluorogenic substrate Cbz-Phe-Arg-AMC; conditions: Table 2; enzyme from human liver tissue, pH 5.5, 30° C., 10 μM substrate; read-out: hCat B Ki
Experimental: (§1) All assays for cathepsin K were carried out with human and rat recombinant enzyme. Assays for cathepsins S Et V were also carried out with human recombinant enzyme. Assays for human cathepsins B. H. and L were carried out with enzyme, purchased from Athens Research and Technology, Inc., prepared from human liver tissue. Standard assay conditions for the determination of kinetic constants used a fluorogenic peptide substrate, typically (5S,8S)-13-amino-5-benzyl-13-imino-3-methylene-N-(4methyl-2-oxo-2H-chromen-7-yl)-6-oxo-1-phenyl-2-oxa-4,7,12-triazatridecane-8-carboxamide (Cbz-Phe-Arg-AMC), and were determined in 100 mM sodium acetate at pH 5.5 containing 10 mM dithiothreitol and 120 mM sodium chloride. A stock substrate solution of Cbz-Phe-Arg-AMC was prepared at a concentration of 50 mM in dimethyl sulfoxide. This substrate was diluted into the assay for a final substrate concentration of 10 μM in the rat cathepsin K, human cathepsin K, and human cathepsin B assays; a final substrate concentration of 5 μM in the human cathepsin L assay; and a final substrate concentration of 2 μM in the human cathepsin V assay.
(§2) All assays contained 10% dimethyl sulfoxide. […] All assays were conducted at 30° C. Product fluorescence (excitation at 360 nm; emission at 440 nm, (except cathepsin H which used excitation at 340 nm; emission at 420 nm)) was monitored with a PerSeptive Biosystems Cytofluor II fluorescence plate reader. Product progress curves were generated over 2.3 h monitoring the formation of 7-amino-4-methylcoumarin product (or β-naphthalamide for cathepsin H).
(§3) Potential inhibitors were evaluated using the progress curve method. Assays were carried out in the presence of variable concentrations of test compound. Reactions were initiated by addition of buffered solutions of inhibitor and substrate to enzyme. Data analysis was conducted according to one of two procedures depending on the appearance of the progress curves in the presence of inhibitors. For those compounds whose progress curves were linear, the enzymatic activity (RATE) was plotted against the concentration of test compound, including inhibitor concentration of zero ([I]=0), and the IC50 determined from a fit of equation 1 to the data, RATE=Vmax/(1+([I]/IC50)) (1) where Vmax is the best fit estimate of the maximal enzymatic activity. Ki values were calculated from IC50 values using equation 2 assuming a competitive model. [formula]

human cathepsin L = human cathepsin L (Homo sapiens, UniProt P07711); experiment: Cathepsin L inhibition assay, fluorogenic substrate Cbz-Phe-Arg-AMC; conditions: Table 2; enzyme from human liver tissue, pH 5.5, 30° C., 5 μM substrate; read-out: hCat L Ki
Experimental: as §1, §2, §3

human cathepsin V = human cathepsin V (Homo sapiens, UniProt O60911); experiment: Cathepsin V inhibition assay, fluorogenic substrate Cbz-Phe-Arg-AMC; conditions: Table 2; human recombinant enzyme, pH 5.5, 30° C., 2 μM substrate; read-out: hCat V Ki
Experimental: as §1, §2, §3

rat cathepsin K = target: T1, rat cathepsin K (Rattus norvegicus, UniProt O35186); experiment: Cathepsin K inhibition assay, fluorogenic substrate Cbz-Phe-Arg-AMC, progress curve method; conditions: Table 2; rat recombinant enzyme, pH 5.5, 30° C., 10 μM substrate; read-out: rCat K Ki
T1 construct: The proform of cathepsin K was converted to mature cathepsin K by brief exposure to pH 4; made in house; host or cells: baculovirus; Trichoplusia ni High Five cells (virus raised in Sf-9)
T1 sequence (O35186 115-329): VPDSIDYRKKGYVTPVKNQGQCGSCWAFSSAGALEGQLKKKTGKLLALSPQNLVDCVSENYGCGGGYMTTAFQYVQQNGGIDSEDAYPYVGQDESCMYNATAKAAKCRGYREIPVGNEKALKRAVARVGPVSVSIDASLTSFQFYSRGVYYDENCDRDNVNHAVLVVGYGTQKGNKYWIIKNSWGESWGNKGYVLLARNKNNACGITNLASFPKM
Experimental: as §1, §2
Scale-Up and Fermentation: The method of O'Reilly et al. (1994) was used for baculovirus expression with the following details. Two liters of Spodoptera frugiperda (Sf-9) cells (ATCC) were grown in Grace's Supplemented medium (Life Technologies) supplemented with 2 g/L glucose, 10% a fetal bovine serum (HyClone) and 0.10% pluronic F-68 (Life Technologies). Cells were grown in a 6 L shake flask at 150 RPM at 28° C. for 24 h to a density of 10^6 cells/mL, and then infected at a multiplicity of infection (MOI) of 0.1. The cells continued to grow for 72 h post-infection, before the virus was harvested by centrifugation at 1400× g for 30 min. Virus was titered as described (Summers and Smith, 1987).
One and one-half liters of Trichoplusia ni (T. ni) High Five (TM) cells [JRH Biosciences, Woodland, Calif. (adapted to suspension and serum-free medium)] grown in Excell 405 (TM) medium (JRH Biosciences) with 50 ug/mL gentamicin (Life Technologies) were added to a 15 L stirred tank reactor (Quark Enterprises, Inc) at a density of ˜0.5×10^6 cells/mL The cells were grown for 24 h at 28° C., 50 RPM, and 50% dissolved oxygen. Cells were then infected at a density of ˜10^6 cells/mL with an MOI of 1 and grown for 48 h post-infection. Media were separated from cells at a rate of 1 L/min using the Centritech 100 (TM) continuous-flow centrifuge (DuPont) operating at 200× g.
Protein Purification: Media (human and rat) were filtered through a Whatman 3 filter, and then loaded onto a 25 mL Poros HS II (26 mm×47 mm) cation exchange column equilibrated in 25 mM sodium acetate at pH 5.5 (equilibration buffer). The column was washed until the absorbance reached the baseline value, and then the protein was eluted with a linear gradient from 0-2 M sodium chloride in the equilibration buffer. Column fractions were analyzed by SDS-PAGE, N-terminal sequencing, and mass spectrometry. Fractions containing the proform of cathepsin K were pooled and frozen at −80° C. The proform was concentrated in an Amicon Centriprep 10 and fractionated with a Superdex 75 column (26 mm×600 mm, Pharmacia) equilibrated in 400 mM sodium chloride, 25 mM sodium acetate at pH 5.5.
Cathepsin K Activation: The proform of cathepsin K was converted to mature cathepsin K by brief exposure to pH 4 in the presence of 5 mM L-cysteine. […]

human cathepsin H = human cathepsin H (Homo sapiens, UniProt P09668); experiment: Cathepsin H inhibition assay, substrate L-Arg-β-naphthalamide; conditions: Table 2; enzyme from human liver tissue, pH 5.5, 30° C.; read-out: hCat H Ki
Experimental: as §1
A stock substrate solution of (2S)-2-amino-5-{[amino(imino)methyl]amino}-N-(2-naphthyl)pentanamide hydrochloride (L-Arg-β-naphthalamide.HCl) was prepared at a concentration of 10 mM in dimethyl sulfoxide. This substrate was diluted into the assay for a final substrate concentration of […] in the cathepsin H assay.
as §2, §3

Sequence of human cathepsin L (P07711 114-288 limits assumed): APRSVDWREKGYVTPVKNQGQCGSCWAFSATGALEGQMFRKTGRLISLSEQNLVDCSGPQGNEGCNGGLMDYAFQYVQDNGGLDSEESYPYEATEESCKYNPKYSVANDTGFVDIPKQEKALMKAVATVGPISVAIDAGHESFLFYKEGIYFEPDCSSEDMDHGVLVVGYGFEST
Sequence of human cathepsin L (P07711 292-333 limits assumed): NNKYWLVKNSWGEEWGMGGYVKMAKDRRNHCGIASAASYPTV
Sequence of human cathepsin H (P09668 116-335 limits assumed, other chains not shown): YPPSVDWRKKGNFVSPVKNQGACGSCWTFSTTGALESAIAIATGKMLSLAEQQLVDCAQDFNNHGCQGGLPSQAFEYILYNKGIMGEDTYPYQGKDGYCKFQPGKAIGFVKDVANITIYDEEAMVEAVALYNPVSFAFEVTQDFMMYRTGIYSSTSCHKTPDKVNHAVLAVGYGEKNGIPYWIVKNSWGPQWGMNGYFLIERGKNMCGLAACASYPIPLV
Sequence of human cathepsin V (O60911 114-334): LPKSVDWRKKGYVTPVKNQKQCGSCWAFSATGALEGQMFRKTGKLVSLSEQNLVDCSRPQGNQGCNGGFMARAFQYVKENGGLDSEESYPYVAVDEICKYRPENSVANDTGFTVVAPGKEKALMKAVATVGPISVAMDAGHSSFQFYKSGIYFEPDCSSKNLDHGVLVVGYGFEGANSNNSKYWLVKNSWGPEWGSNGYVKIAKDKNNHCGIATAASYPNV

Compound	Ki (human cathepsin B) [nM]	Ki (human cathepsin L) [nM]	Ki (human cathepsin V) [nM]	Ki (rat cathepsin K) [nM]	Ki (human cathepsin H) [nM]
CCCC[C@H](NC(=O)O[C@H](Cn1cnc(-c2ccc(C(F)(F)F)cc2)c1)C(C)(C)C)C(=O)C(=O)Nc1ccn[nH]1 [Example 7, (1S)-2,2-dimethyl-1-({4-[4-(trifluoromethyl)phenyl]-1H-imidazol-1-yl}methyl)propyl(1S)-1-[oxo(1H-pyrazol-5-ylamino)acetyl]pentylcarbamate]	1 to 100	1 to 100	0.01 to 1	0.01 to 1	100 to 10000
CCCC[C@H](NC(=O)O[C@H](Cn1cnc(-c2ccc(C(F)(F)F)cc2)c1)C(C)(C)C)C(=O)C(=O)Nc1ccnn1C1CCC1 [Example 35, (1S)-2,2-dimethyl-1-({4-[4-(trifluoromethyl)phenyl]-1H-imidazol-1-yl}methyl)propyl(1S)-1-[[(1-cyclobutyl-1H-pyrazol-5-yl)amino](oxo)acetyl]pentylcarbamate]	100 to 10000	100 to 10000	1 to 100	1 to 100	100 to 10000
CCCC[C@H](NC(=O)O[C@H](Cc1nnc(-c2ccc(F)cc2)o1)C(C)(C)C)C(=O)C(=O)Nc1ccnn1C (stereo in doubt) [Example 22, (1R)-1-{[5-(4-fluorophenyl)-1,3,4-oxadiazol-2-yl]methyl}-2,2-dimethylpropyl(1S)-1-[[(1-methyl-1H-pyrazol-5-yl)amino](oxo)acetyl]pentyl carbamate]	100 to 10000	100 to 10000	100 to 10000	100 to 10000	–
CCCC[C@H](NC(=O)O[C@H](Cn1ccc(-c2ccc(C(F)(F)F)cc2)n1)C(C)(C)C)C(=O)C(=O)Nc1ccn[nH]1 [Example 1]	1 to 100	1 to 100	0.01 to 1	0.01 to 1	100 to 10000

Further lines, results first:

Ki (human cathepsin B) [nM]	Ki (human cathepsin L) [nM]	Ki (human cathepsin V) [nM]	Ki (rat cathepsin K) [nM]	Ki (human cathepsin H) [nM]	Compound
1 to 100	0.01 to 1	0.01 to 1	0.01 to 1	100 to 10000	CCCC[C@H](NC(=O)O[C@H](Cn1cnc2cc(Cl)c(Cl)cc21)C(C)(C)C)C(=O)C(=O)Nc1ccn[nH]1 [Example 37, (1S)-1-[(5,6-dichloro-1H-benzimidazol-1-yl)methyl]-2,2-dimethylpropyl(1S)-1-[oxo(1H-pyrazol-5-ylamino)acetyl]pentylcarbamate]
1 to 100	1 to 100	1 to 100	1 to 100	100 to 10000	CCCC[C@H](NC(=O)O[C@H](c1nnc(-c2ccc(C(F)(F)F)cc2)o1)C(C)(C)C)C(=O)C(=O)NN1CCOC1=O [Example 39, (1S)-2,2-dimethyl-1-{5-[4-(trifluoromethyl)phenyl]-1,3,4-oxadiazol-2-yl}propyl(1S)-1-{oxo[(2-oxo-1,3-oxazolidin-3-yl)amino]acetyl}pentylcarbamate]
1 to 100	1 to 100	1 to 100	1 to 100	100 to 10000	CCCC[C@H](NC(=O)O[C@H](c1nnc(-c2ccc(C(F)(F)F)cc2)o1)C(C)(C)C)C(=O)C(=O)Nc1ccn[nH]1 [Example 38, (1S)-2,2-dimethyl-1-{5-[4-(trifluoromethyl)phenyl]-1,3,4-oxadiazol-2-yl}propyl(1S)-1-[oxo(1H-pyrazol-5-ylamino)acetyl]pentylcarbamate]
